“And” between values parts separate entries of the source, which are not always exact repeats. Identical values can stand only once.
Settings: Liquid, Gas chromatography

CCCCCCCC/C=C/CCCCCCCCCCCCC [(E)-9-tricosene]
Settings	vapor or sublimation pressure
298.15 K	1.041e-07 kPa and 1.013e-07 kPa
308.15 K	4.621e-07 kPa and 4.52e-07 kPa
318.15 K	1.828e-06 kPa and 1.795e-06 kPa
328.15 K	6.514e-06 kPa and 6.421e-06 kPa
338.15 K	2.089e-05 kPa and 2.112e-05 kPa
358.15 K	0.0001722 kPa and 0.000173 kPa
368.15 K	0.0004428 kPa and 0.0004438 kPa
378.15 K	0.001067 kPa
388.15 K	0.002425 kPa and 0.002419 kPa
398.15 K	0.005195 kPa and 0.00522 kPa
408.15 K	0.01062 kPa and 0.01069 kPa
418.15 K	0.02075 kPa and 0.02093 kPa
428.15 K	0.0389 kPa and 0.0393 kPa
438.15 K	0.07017 kPa and 0.07101 kPa
448.15 K	0.1222 kPa and 0.1238 kPa
458.15 K	0.2059 kPa and 0.209 kPa
468.15 K	0.3368 kPa and 0.3423 kPa
478.15 K	0.5356 kPa and 0.5451 kPa
488.15 K	0.83 kPa and 0.8458 kPa
498.15 K	1.256 kPa and 1.281 kPa
508.15 K	1.858 kPa and 1.898 kPa
518.15 K	2.693 kPa and 2.753 kPa
528.15 K	3.828 kPa and 3.918 kPa
538.15 K	5.344 kPa and 5.475 kPa
548.15 K	7.336 kPa and 7.523 kPa
558.15 K	9.914 kPa and 10.18 kPa
568.15 K	13.2 kPa and 13.56 kPa
578.15 K	17.34 kPa and 17.82 kPa
588.15 K	22.48 kPa and 23.12 kPa
598.15 K	28.79 kPa and 29.64 kPa
608.15 K	36.46 kPa and 37.56 kPa
618.15 K	45.67 kPa and 47.09 kPa
628.15 K	56.64 kPa and 58.44 kPa
638.15 K	69.59 kPa and 71.83 kPa
648.15 K	84.72 kPa and 87.52 kPa
655 K	99.7 kPa
656 K	98.29 kPa

CCCCCCCC/C=C\CCCCCCCCCCCCC [(Z)-tricos-9-ene]
Settings	vapor or sublimation pressure
298.15 K	1.146e-07 kPa and 1.205e-07 kPa
308.15 K	5.055e-07 kPa and 5.324e-07 kPa
318.15 K	1.987e-06 kPa and 2.096e-06 kPa
328.15 K	7.042e-06 kPa and 7.434e-06 kPa
358.15 K	0.0001951 kPa and 0.0001844 kPa
368.15 K	0.0004985 kPa and 0.0004708 kPa
378.15 K	0.001195 kPa and 0.001128 kPa
388.15 K	0.0027 kPa and 0.002546 kPa
398.15 K	0.00545 kPa and 0.005782 kPa
408.15 K	0.01111 kPa and 0.01179 kPa
418.15 K	0.02163 kPa and 0.02297 kPa
428.15 K	0.04041 kPa and 0.04294 kPa
438.15 K	0.07269 kPa and 0.07727 kPa
448.15 K	0.1262 kPa and 0.1343 kPa
458.15 K	0.2121 kPa and 0.2258 kPa
468.15 K	0.346 kPa and 0.3684 kPa
478.15 K	0.5489 kPa and 0.5848 kPa
488.15 K	0.8487 kPa and 0.9046 kPa
498.15 K	1.281 kPa and 1.366 kPa
508.15 K	1.891 kPa and 2.018 kPa
518.15 K	2.735 kPa and 2.92 kPa
528.15 K	3.88 kPa and 4.144 kPa
538.15 K	5.406 kPa and 5.777 kPa
548.15 K	7.406 kPa and 7.919 kPa
558.15 K	9.989 kPa and 10.69 kPa
568.15 K	13.28 kPa and 14.21 kPa
578.15 K	17.41 kPa and 18.64 kPa
588.15 K	22.53 kPa and 24.14 kPa
598.15 K	28.81 kPa and 30.88 kPa
608.15 K	36.42 kPa and 39.06 kPa
618.15 K	45.55 kPa and 48.88 kPa
628.15 K	56.41 kPa and 60.56 kPa
638.15 K	69.19 kPa and 74.32 kPa
648.15 K	84.12 kPa and 90.4 kPa
656 K	104.81 kPa
658.15 K	101.4 kPa
